Reference: patent US20020111274A1, “1-alkyl-3-[1-(substituted phenyl) benzotriazol-6-yl] uracils” (BASF Aktiengesellschaft, priority 2000, published 2002)

How the values were obtained:
Design in all cases: scale not given here
[1] = test system: IPOHE Morningglory, Ivyleaf; test: Postemergence herbicidal evaluation, IPOHE; assay type: in vivo, Ipomoea hederacea, (L.) Jacq.; settings: postemergence spray, rated about two-three weeks after treatment
In short: (§1)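 Plants are raised for roughly two weeks, then treated postemergence with compound dispersed in acetone/water (80/20) plus 1.0% seed oil adjuvant, at rates of about 0.006 kg to 0.400 kg per hectare. After greenhouse care, damage is scored two to three weeks later.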

[2] = test system: TRZAWR Wheat, Winter, cv Riband; test: Postemergence herbicidal evaluation, TRZAWR; assay type: in vivo, Triticum aestivum; settings: postemergence spray, rated about two-three weeks after treatment
In short: as §1

ORYSAT Rice, Tebonnet [3] = test: Postemergence herbicidal evaluation, ORYSAT; assay type: in vivo, Oryza sativa, (L.); settings: postemergence spray, rated about two-three weeks after treatment
In short: as §1

AMBEL Ragweed, Common [4] = test: Postemergence herbicidal evaluation, AMBEL; assay type: in vivo, Ambrosia artemisifolia, L.; settings: postemergence spray, rated about two-three weeks after treatment
In short: as §1

GALAP Galium [5] = test: Preemergence herbicidal evaluation, GALAP; assay type: in vivo, Galium aparine; settings: preemergence
In short: (§2)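 Compound applied preemergence as an aqueous acetone spray onto freshly planted cups, dose equivalent approx. 0.013 to 0.800 kg/ha. Evaluation by rating at weeks 4–5.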

ECHOG Barnyardgrass [6] = test: Postemergence herbicidal evaluation, ECHOG; assay type: in vivo, Echinochloa crus-galli, (L.) Beau; settings: postemergence spray, rated about two-three weeks after treatment
In short: as §1

ORYSAT Rice, Tebonnet [7] = test: Preemergence herbicidal evaluation, ORYSAT; assay type: in vivo, Oryza sativa, (L.); settings: preemergence
In short: as §2

CASOB Sicklepod [8] = test: Preemergence herbicidal evaluation, CASOB; assay type: in vivo, Cassia obtusifolia, L.; settings: preemergence
In short: as §2

CASOB Sicklepod [9] = test: Postemergence herbicidal evaluation, CASOB; assay type: in vivo, Cassia obtusifolia, L.; settings: postemergence spray, rated about two-three weeks after treatment
In short: as §1

[10] = test system: IPOHE Morningglory, Ivyleaf; test: Preemergence herbicidal evaluation, IPOHE; assay type: in vivo, Ipomoea hederacea, (L.) Jacq.; settings: preemergence
In short: as §2

[11] = test system: TRZAWR Wheat, Winter, cv Riband; test: Preemergence herbicidal evaluation, TRZAWR; assay type: in vivo, Triticum aestivum; settings: preemergence
In short: as §2

ABUTH Velvetleaf [12] = test: Preemergence herbicidal evaluation, ABUTH; assay type: in vivo, Abutilon theophrasti, Medic.; settings: preemergence
In short: as §2

[13] = test system: CHEAL Lambsquarters, Common; test: Postemergence herbicidal evaluation, CHEAL; assay type: in vivo, Chenopodium album, L.; settings: postemergence spray, rated about two-three weeks after treatment
In short: as §1

[14] = test system: CHEAL Lambsquarters, Common; test: Preemergence herbicidal evaluation, CHEAL; assay type: in vivo, Chenopodium album, L.; settings: preemergence
In short: as §2

ZEAMX Corn, Field [15] = test: Postemergence herbicidal evaluation, ZEAMX; assay type: in vivo, Zea mays, L. (Sammel-Bezeichnung); settings: postemergence spray, rated about two-three weeks after treatment
In short: as §1

GLXMAW Soybean, Williams [16] = test: Postemergence herbicidal evaluation, GLXMAW; assay type: in vivo, Glycine max, (L.) Merr. cv Williams; settings: postemergence spray, rated about two-three weeks after treatment
In short: as §1

ABUTH Velvetleaf [17] = test: Postemergence herbicidal evaluation, ABUTH; assay type: in vivo, Abutilon theophrasti, Medic.; settings: postemergence spray, rated about two-three weeks after treatment
In short: as §1

GLXMAW Soybean, Williams [18] = test: Preemergence herbicidal evaluation, GLXMAW; assay type: in vivo, Glycine max, (L.) Merr. cv Williams; settings: preemergence
In short: as §2

ECHOG Barnyardgrass [19] = test: Preemergence herbicidal evaluation, ECHOG; assay type: in vivo, Echinochloa crus-galli, (L.) Beau; settings: preemergence
In short: as §2

GALAP Galium [20] = test: Postemergence herbicidal evaluation, GALAP; assay type: in vivo, Galium aparine; settings: postemergence spray, rated about two-three weeks after treatment
In short: as §1

SETVI Foxtail, Green [21] = test: Postemergence herbicidal evaluation, SETVI; assay type: in vivo, Setaria viridis, (L.) Beau; settings: postemergence spray, rated about two-three weeks after treatment
In short: as §1

SETVI Foxtail, Green [22] = test: Preemergence herbicidal evaluation, SETVI; assay type: in vivo, Setaria viridis, (L.) Beau; settings: preemergence
In short: as §2

AMBEL Ragweed, Common [23] = test: Preemergence herbicidal evaluation, AMBEL; assay type: in vivo, Ambrosia artemisifolia, L.; settings: preemergence
In short: as §2

ZEAMX Corn, Field [24] = test: Preemergence herbicidal evaluation, ZEAMX; assay type: in vivo, Zea mays, L. (Sammel-Bezeichnung); settings: preemergence
In short: as §2

COCc1ccccc1-n1nnc2cc(F)c(-n3c(=O)cc(C(F)(F)F)n(C)c3=O)cc21 [Example 26]
Postemergence herbicidal rating IPOHE ([1]; 0.008 kg/ha): 4.0
Postemergence herbicidal rating IPOHE ([1]; 0.016 kg/ha): 9.0
Postemergence herbicidal rating IPOHE ([1]; 0.032 kg/ha): 9.0
Postemergence herbicidal rating IPOHE ([1]; 0.062 kg/ha): 9.0
Postemergence herbicidal rating TRZAWR ([2]; 0.008 kg/ha): 2.0
Postemergence herbicidal rating TRZAWR ([2]; 0.016 kg/ha): 2.5
Postemergence herbicidal rating TRZAWR ([2]; 0.032 kg/ha): 3.0
Postemergence herbicidal rating TRZAWR ([2]; 0.062 kg/ha): 4.0
Postemergence herbicidal rating ORYSAT (ORYSAT Rice, Tebonnet [3]; 0.008 kg/ha): 2.0
Postemergence herbicidal rating ORYSAT (ORYSAT Rice, Tebonnet [3]; 0.016 kg/ha): 2.0
Postemergence herbicidal rating ORYSAT (ORYSAT Rice, Tebonnet [3]; 0.032 kg/ha): 3.0
Postemergence herbicidal rating ORYSAT (ORYSAT Rice, Tebonnet [3]; 0.062 kg/ha): 4.5
Postemergence herbicidal rating AMBEL (AMBEL Ragweed, Common [4]; 0.008 kg/ha): 4.0
Postemergence herbicidal rating AMBEL (AMBEL Ragweed, Common [4]; 0.016 kg/ha): 6.0
Postemergence herbicidal rating AMBEL (AMBEL Ragweed, Common [4]; 0.032 kg/ha): 7.0
Postemergence herbicidal rating AMBEL (AMBEL Ragweed, Common [4]; 0.062 kg/ha): 9.0
GALAP herbicidal rating (GALAP Galium [5]; rate 0.016 kg/ha): 0.0
GALAP herbicidal rating (GALAP Galium [5]; rate 0.032 kg/ha): 0.0
GALAP herbicidal rating (GALAP Galium [5]; rate 0.062 kg/ha): 7.0
GALAP herbicidal rating (GALAP Galium [5]; rate 0.125 kg/ha): 8.0
Postemergence herbicidal rating ECHCG (ECHOG Barnyardgrass [6]; 0.008 kg/ha): 1.0
Postemergence herbicidal rating ECHCG (ECHOG Barnyardgrass [6]; 0.016 kg/ha): 1.0
Postemergence herbicidal rating ECHCG (ECHOG Barnyardgrass [6]; 0.032 kg/ha): 1.0
Postemergence herbicidal rating ECHCG (ECHOG Barnyardgrass [6]; 0.062 kg/ha): 3.0
ORYSAT herbicidal rating (ORYSAT Rice, Tebonnet [7]; rate 0.016 kg/ha): 0.0
ORYSAT herbicidal rating (ORYSAT Rice, Tebonnet [7]; rate 0.032 kg/ha): 3.0
ORYSAT herbicidal rating (ORYSAT Rice, Tebonnet [7]; rate 0.062 kg/ha): 5.0
ORYSAT herbicidal rating (ORYSAT Rice, Tebonnet [7]; rate 0.125 kg/ha): 7.0
CASOB herbicidal rating (CASOB Sicklepod [8]; rate 0.016 kg/ha): 0.0
CASOB herbicidal rating (CASOB Sicklepod [8]; rate 0.032 kg/ha): 0.0
CASOB herbicidal rating (CASOB Sicklepod [8]; rate 0.062 kg/ha): 7.0
CASOB herbicidal rating (CASOB Sicklepod [8]; rate 0.125 kg/ha): 7.0
Postemergence herbicidal rating CASOB (CASOB Sicklepod [9]; 0.008 kg/ha): 1.0
Postemergence herbicidal rating CASOB (CASOB Sicklepod [9]; 0.016 kg/ha): 2.0
Postemergence herbicidal rating CASOB (CASOB Sicklepod [9]; 0.032 kg/ha): 2.0
Postemergence herbicidal rating CASOB (CASOB Sicklepod [9]; 0.062 kg/ha): 4.0
IPOHE herbicidal rating ([10]; rate 0.016 kg/ha): 0.0
IPOHE herbicidal rating ([10]; rate 0.032 kg/ha): 9.0
IPOHE herbicidal rating ([10]; rate 0.062 kg/ha): 6.0
IPOHE herbicidal rating ([10]; rate 0.125 kg/ha): 9.0
TRZAWR herbicidal rating ([11]; rate 0.016 kg/ha): 0.0
TRZAWR herbicidal rating ([11]; rate 0.062 kg/ha): 6.0
TRZAWR herbicidal rating ([11]; rate 0.125 kg/ha): 8.0
ABUTH herbicidal rating (ABUTH Velvetleaf [12]; rate 0.016 kg/ha): 9.0
ABUTH herbicidal rating (ABUTH Velvetleaf [12]; rate 0.032 kg/ha): 9.0
ABUTH herbicidal rating (ABUTH Velvetleaf [12]; rate 0.062 kg/ha): 9.0
ABUTH herbicidal rating (ABUTH Velvetleaf [12]; rate 0.125 kg/ha): 9.0
Postemergence herbicidal rating CHEAL ([13]; 0.008 kg/ha): 2.0
Postemergence herbicidal rating CHEAL ([13]; 0.016 kg/ha): 7.0
Postemergence herbicidal rating CHEAL ([13]; 0.032 kg/ha): 9.0
CHEAL herbicidal rating ([14]; rate 0.032 kg/ha): 7.0
CHEAL herbicidal rating ([14]; rate 0.062 kg/ha): 9.0
CHEAL herbicidal rating ([14]; rate 0.125 kg/ha): 9.0
Postemergence herbicidal rating ZEAMX (ZEAMX Corn, Field [15]; 0.008 kg/ha): 3.5
Postemergence herbicidal rating ZEAMX (ZEAMX Corn, Field [15]; 0.016 kg/ha): 4.0
Postemergence herbicidal rating ZEAMX (ZEAMX Corn, Field [15]; 0.032 kg/ha): 4.0
Postemergence herbicidal rating ZEAMX (ZEAMX Corn, Field [15]; 0.062 kg/ha): 6.5
Postemergence herbicidal rating GLXMAW (GLXMAW Soybean, Williams [16]; 0.008 kg/ha): 4.5
Postemergence herbicidal rating GLXMAW (GLXMAW Soybean, Williams [16]; 0.016 kg/ha): 5.0
Postemergence herbicidal rating GLXMAW (GLXMAW Soybean, Williams [16]; 0.032 kg/ha): 5.5
Postemergence herbicidal rating GLXMAW (GLXMAW Soybean, Williams [16]; 0.062 kg/ha): 9.0
Postemergence herbicidal rating ABUTH (ABUTH Velvetleaf [17]; 0.008 kg/ha): 9.0
Postemergence herbicidal rating ABUTH (ABUTH Velvetleaf [17]; 0.016 kg/ha): 9.0
Postemergence herbicidal rating ABUTH (ABUTH Velvetleaf [17]; 0.032 kg/ha): 9.0
Postemergence herbicidal rating ABUTH (ABUTH Velvetleaf [17]; 0.062 kg/ha): 9.0
GLXMAW herbicidal rating (GLXMAW Soybean, Williams [18]; rate 0.016 kg/ha): 1.0
GLXMAW herbicidal rating (GLXMAW Soybean, Williams [18]; rate 0.032 kg/ha): 2.0
GLXMAW herbicidal rating (GLXMAW Soybean, Williams [18]; rate 0.062 kg/ha): 9.0
GLXMAW herbicidal rating (GLXMAW Soybean, Williams [18]; rate 0.125 kg/ha): 5.0
ECHCG herbicidal rating (ECHOG Barnyardgrass [19]; rate 0.016 kg/ha): 1.0
ECHCG herbicidal rating (ECHOG Barnyardgrass [19]; rate 0.032 kg/ha): 6.0
ECHCG herbicidal rating (ECHOG Barnyardgrass [19]; rate 0.062 kg/ha): 7.0
ECHCG herbicidal rating (ECHOG Barnyardgrass [19]; rate 0.125 kg/ha): 9.0
Postemergence herbicidal rating GALAP (GALAP Galium [20]; 0.008 kg/ha): 1.0
Postemergence herbicidal rating GALAP (GALAP Galium [20]; 0.016 kg/ha): 1.0
Postemergence herbicidal rating GALAP (GALAP Galium [20]; 0.032 kg/ha): 2.0
Postemergence herbicidal rating GALAP (GALAP Galium [20]; 0.062 kg/ha): 6.0
Postemergence herbicidal rating SETVI (SETVI Foxtail, Green [21]; 0.008 kg/ha): 1.0
Postemergence herbicidal rating SETVI (SETVI Foxtail, Green [21]; 0.016 kg/ha): 5.0
Postemergence herbicidal rating SETVI (SETVI Foxtail, Green [21]; 0.032 kg/ha): 2.0
Postemergence herbicidal rating SETVI (SETVI Foxtail, Green [21]; 0.062 kg/ha): 5.0
SETVI herbicidal rating (SETVI Foxtail, Green [22]; rate 0.016 kg/ha): 2.0
SETVI herbicidal rating (SETVI Foxtail, Green [22]; rate 0.032 kg/ha): 9.0
SETVI herbicidal rating (SETVI Foxtail, Green [22]; rate 0.062 kg/ha): 9.0
SETVI herbicidal rating (SETVI Foxtail, Green [22]; rate 0.125 kg/ha): 9.0
AMBEL herbicidal rating (AMBEL Ragweed, Common [23]; rate 0.016 kg/ha): 2.0
AMBEL herbicidal rating (AMBEL Ragweed, Common [23]; rate 0.032 kg/ha): 7.0
AMBEL herbicidal rating (AMBEL Ragweed, Common [23]; rate 0.062 kg/ha): 7.0
AMBEL herbicidal rating (AMBEL Ragweed, Common [23]; rate 0.125 kg/ha): 9.0
ZEAMX herbicidal rating (ZEAMX Corn, Field [24]; rate 0.016 kg/ha): 1.0
ZEAMX herbicidal rating (ZEAMX Corn, Field [24]; rate 0.032 kg/ha): 4.0
ZEAMX herbicidal rating (ZEAMX Corn, Field [24]; rate 0.062 kg/ha): 7.0
ZEAMX herbicidal rating (ZEAMX Corn, Field [24]; rate 0.125 kg/ha): 7.0
